{"source": "patent US20130251730A1", "about": "“Compounds and Mixtures Influencing Inflammatory States” (SYMRISE AG, priority 2012, published 2013)", "key": {"[1]": {"tested_on": "IL-6 release by human gingival fibroblastic cells (HGF-1)", "test": "Release of IL-6 by HGF-1 cells after stimulation with 10 μg/ml PG-LPS (magnetic bead assay)", "assay_type": "cell-based", "method": "Human gingival fibroblastic cells (HGF-1) were sowed out in 24-well plates with 15,000 cells per well and cultivated for 3 to 5 days. DNEM containing 10% FBS, 1% penicillin/streptomycin and 4% glutamine was used as the medium. For determination of the anti-inflammatory action the cells were incubated with 10 μg/ml PG-LPS for 6 and 9 hrs. Subsequently, the release of IL-6 and IL-8 per magnetic bead was determined (Procarta, Affimetrix) using a MAGPIX equipment (Merck-Millipore) and analysed using the Milliplex software (Merck Millipore). In each case 4 samples with two technical replicates were measured. In addition to this control the cells were co-incubated with • (a) 10 μg/ml PG-LPS and also with • (b) solutions of the Herba Santa extract according to Example 1 (HS, containing 21.7% HED, […]); • (c) the flavonoid fraction (“FF”) obtained as a by-product according to Example 4 (containg 41.5% HED, […]); • (d) the extract rich in erionic acid (“ES”) according to Example 4 or isolated erionic acid B (according to Example 2) and • (e) erionic acid C according to Example 3 (each 0,1 μM, 1 μM and 10 μM).\n(§1) After incubation the cell culture medium was transferred into an Eppendorf reaction vessel and at 4° C. for 10 min subjected to centrifugation (1000×g) in order to separate the cell depris. The upper layer was stored at −80° C. until the analysis started. The results of the release of IL-6 and […]"}, "[2]": {"tested_on": "IL-8 release by human gingival fibroblastic cells (HGF-1)", "test": "Release of IL-8 by HGF-1 cells after stimulation with 10 μg/ml PG-LPS (magnetic bead assay)", "assay_type": "cell-based", "method": "Human gingival fibroblastic cells (HGF-1) were sowed out in 24-well plates with 15,000 cells per well and cultivated for 3 to 5 days. DNEM containing 10% FBS, 1% penicillin/streptomycin and 4% glutamine was used as the medium. For determination of the anti-inflammatory action the cells were incubated with 10 μg/ml PG-LPS for 6 and 9 hrs. Subsequently, the release of IL-6 and IL-8 per magnetic bead was determined (Procarta, Affimetrix) using a MAGPIX equipment (Merck-Millipore) and analysed using the Milliplex software (Merck Millipore). In each case 4 samples with two technical replicates were measured. In addition to this control the cells were co-incubated with • (a) 10 μg/ml PG-LPS and also with • (b) solutions of the Herba Santa extract according to Example 1 (HS, containing 21.7% HED, 0.1 μM, 1 μM and 10 μM calculated on HED); • (c) the flavonoid fraction (“FF”) obtained as a by-product according to Example 4 (containg 41.5% HED, 0,1 μM, 1 μM and 10 μM calculated on HED); • (d) the extract rich in erionic acid (“ES”) according to Example 4 or isolated erionic acid B (according to Example 2) and • (e) erionic acid C according to Example 3 (each 0,1 μM, 1 μM and 10 μM).\nas §1"}, "[3]": {"details": "10 μg/ml PG-LPS + 1 μg/ml test substance, 6 h"}, "[4]": {"details": "10 μg/ml PG-LPS + 1 μg/ml test substance, 9 h"}, "[5]": {"details": "10 μg/ml PG-LPS + 10 μg/ml test substance, 6 h"}, "[6]": {"details": "10 μg/ml PG-LPS + 10 μg/ml test substance, 9 h"}, "[7]": {"details": "10 μg/ml PG-LPS + 100 μg/ml test substance, 6 h"}, "[8]": {"details": "10 μg/ml PG-LPS + 100 μg/ml test substance, 9 h"}, "[9]": {"details": "co-incubation with 10 μg/ml PG-LPS, 6 and 9 hrs, 0.1, 1 and 10 μM"}}, "note": "Marks after values point to notes of the source that are not given here."}
{"smiles": "CC(CCc1cc(C(=O)O)cc2c1OC(C)(C)C(O)C2)C(=O)/C=C/C(C)(C)O", "note": "(centres unmarked) [Erionic acid B, 3-hydroxy-8-((E)-7-hydroxy-3,7-dimethyl-4-oxo-oct-5-enyl)-2,2-dimethyl-chroman-6-carboxylic acid]", "values": [{"measurement": "IL-6 T/C [%]", "setting": "[1]; [3]", "value": "61.93* %"}, {"measurement": "IL-6 T/C [%]", "setting": "[1]; [4]", "value": "77.51* %"}, {"measurement": "IL-6 T/C [%]", "setting": "[1]; [5]", "value": 102.30, "unit": "%"}, {"measurement": "IL-6 T/C [%]", "setting": "[1]; [6]", "value": "61.47*** %"}, {"measurement": "IL-6 T/C [%]", "setting": "[1]; [7]", "value": "41.30** %"}, {"measurement": "IL-6 T/C [%]", "setting": "[1]; [8]", "value": 102.74, "unit": "%"}, {"measurement": "release of IL-6", "setting": "[1]; [9]", "value": "significant reduction"}, {"measurement": "IL-8 T/C [%]", "setting": "[2]; [3]", "value": 79.91, "unit": "%"}, {"measurement": "IL-8 T/C [%]", "setting": "[2]; [4]", "value": 77.33, "unit": "%"}, {"measurement": "IL-8 T/C [%]", "setting": "[2]; [5]", "value": "134.54** %"}, {"measurement": "IL-8 T/C [%]", "setting": "[2]; [6]", "value": 71.35, "unit": "%"}, {"measurement": "IL-8 T/C [%]", "setting": "[2]; [7]", "value": "46.30** %"}, {"measurement": "IL-8 T/C [%]", "setting": "[2]; [8]", "value": 116.34, "unit": "%"}, {"measurement": "release of IL-8", "setting": "[2]; [9]", "value": "significant reduction"}]}
